Measurements published in the supplement of paper PMC10307832.

Key:
Assay in all cases: relative viability (nuclei count vs DMSO), 5 days (fraction); higher = more cells survive
RU-SKI 43 + Dasatinib = compound: CC[C@@H](C)CNCC(=O)N1CCC2=C([C@@H]1COC3=CC=CC(=C3)C)C=CS2 [RU-SKI 43] + Cc1nc(Nc2ncc(C(=O)Nc3c(C)cccc3Cl)s2)cc(N2CCN(CCO)CC2)n1 [Dasatinib] (partner 0.075 µM)
Outline: (§1)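 Relative viability was taken as the ratio of nuclei in treated wells to nuclei in vehicle wells. Lung cancer cell lines in 1536-well plates received compounds by pin tool one day after seeding, either one drug alone or a fixed anchor-drug dose plus five library-drug doses (not always all listed) in √10 steps. Nuclei were counted on 4× images after 5 days of treatment, and values are medians of duplicate plates.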

RU-SKI 43 + Foretinib = compound: CC[C@@H](C)CNCC(=O)N1CCC2=C([C@@H]1COC3=CC=CC(=C3)C)C=CS2 [RU-SKI 43] + COc1cc2c(Oc3ccc(NC(=O)C4(C(=O)Nc5ccc(F)cc5)CC4)cc3F)ccnc2cc1OCCCN1CCOCC1 [Foretinib] (partner 0.25 µM)
Outline: as §1

Irinotecan + Crizotinib = compound: CCc1c2c(nc3ccc(OC(=O)N4CCC(N5CCCCC5)CC4)cc13)-c1cc3c(c(=O)n1C2)COC(=O)[C@]3(O)CC [Irinotecan] + C[C@@H](Oc1cc(-c2cnn(C3CCNCC3)c2)cnc1N)c1c(Cl)ccc(F)c1Cl [Crizotinib] (partner 1 µM)
Outline: as §1

RU-SKI 43 + Navitoclax = compound: CC[C@@H](C)CNCC(=O)N1CCC2=C([C@@H]1COC3=CC=CC(=C3)C)C=CS2 [RU-SKI 43] + CC1(C)CCC(c2ccc(Cl)cc2)=C(CN2CCN(c3ccc(C(=O)NS(=O)(=O)c4ccc(N[C@H](CCN5CCOCC5)CSc5ccccc5)c(S(=O)(=O)C(F)(F)F)c4)cc3)CC2)C1 [Navitoclax] (partner 0.5 µM)
Outline: as §1

**Q.** With UMC-11 as the cell line, how does the relative viability (RU-SKI 43 + Dasatinib; first compound 0.1 µM) read?
**A.** 0.526

**Q.** And the relative viability (RU-SKI 43 + Dasatinib; first compound 0.3162 µM)?
**A.** 0.685

**Q.** And the relative viability (RU-SKI 43 + Dasatinib; first compound 1 µM)?
**A.** 0.577

**Q.** What about the relative viability (RU-SKI 43 + Dasatinib; first compound 3.162 µM) of the same cell line?
**A.** 0.516

**Q.** What about the relative viability (RU-SKI 43 + Dasatinib; first compound 10 µM) of the same cell line?
**A.** 0.471

**Q.** What about the relative viability (RU-SKI 43 + Foretinib; first compound 0.1 µM) of the same cell line?
**A.** 1.07

**Q.** What about the relative viability (RU-SKI 43 + Foretinib; first compound 0.3162 µM) of the same cell line?
**A.** 1.14

**Q.** And the relative viability (RU-SKI 43 + Foretinib; first compound 1 µM)?
**A.** 1.05

**Q.** And the relative viability (RU-SKI 43 + Foretinib; first compound 3.162 µM)?
**A.** 1.14

**Q.** And the relative viability (RU-SKI 43 + Foretinib; first compound 10 µM)?
**A.** 1.03

**Q.** What about the relative viability (Irinotecan + Crizotinib; first compound 0.6325 µM) of the same cell line?
**A.** 0.296

**Q.** And the relative viability (Irinotecan + Crizotinib; first compound 2 µM)?
**A.** 0.374

**Q.** And the relative viability (Irinotecan + Crizotinib; first compound 6.325 µM)?
**A.** 0.326

**Q.** What about the relative viability (Irinotecan + Crizotinib; first compound 20 µM) of the same cell line?
**A.** 0.157

**Q.** What about the relative viability (RU-SKI 43 + Navitoclax; first compound 0.1 µM) of the same cell line?
**A.** 0.276

**Q.** What about the relative viability (RU-SKI 43 + Navitoclax; first compound 0.3162 µM) of the same cell line?
**A.** 0.315

**Q.** What about the relative viability (RU-SKI 43 + Navitoclax; first compound 1 µM) of the same cell line?
**A.** 0.321

**Q.** And the relative viability (RU-SKI 43 + Navitoclax; first compound 3.162 µM)?
**A.** 0.305

**Q.** What about the relative viability (RU-SKI 43 + Navitoclax; first compound 10 µM) of the same cell line?
**A.** 0.267
